Data: PMC6325200, “Effects of Microplate Type and Broth Additives on Microdilution MIC Susceptibility Assays” (Antimicrobial Agents and Chemotherapy, 2018)
Converted amounts (≈) assume the structure as drawn.

Key:
[1] = system: P. aeruginosa ATCC 10145; test: microbe, parasite or virus in culture; details: Pseudomonas aeruginosa, n = 2
How it was run: (§1)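 Every plate included two controls, one row of bacteria alone and one of medium only. Test agents and standard antibiotics underwent twofold dilution series in 96-well format, and cultures were diluted 40-fold into MH broth in the presence or absence of Tween before 2–3 h at 37°C.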

[2] = system: K. pneumoniae ATCC 13883; test: microbe, parasite or virus in culture; details: Klebsiella pneumoniae, n = 2
How it was run: as §1

[3] = system: A. baumannii ATCC 19606; test: microbe, parasite or virus in culture; details: Acinetobacter baumannii, n = 2
How it was run: as §1

[4] = system: MRSA; details: literature value; cited from earlier work
Text: TABLE 1 Literature MIC values for tested antibiotics | column: MIC (µg/ml) (reference[s]) / MRSA

[5] = system: E. coli; details: literature value; cited from earlier work
[6] = system: E. coli ATCC 25922; test: microbe, parasite or virus in culture; details: n = 2
Method: A positive control of a row of just the bacteria and a negative control of only the medium were included for every plate tested.
The compounds along with standard antibiotics were serially diluted 2-fold across the 96-well plates. […] A sample of each culture was then diluted 40-fold in fresh MH broth (in presence and absence of Tween) and incubated at 37°C for 2 to 3 h.
For experiments in the presence of surfactant, 2% beractant (25 mg/ml) was added to the mid-log-phase cultures and mixed gently and added to all the 96-well plates. For experiments in the presence of serum, a mixture of 50% of human serum along with 50% MHB was prepared and used throughout the experiment.

CO[C@H]1/C=C/O[C@@]2(C)Oc3c(C)c(O)c4c(O)c(c(/C=N/N5CCN(C)CC5)c(O)c4c3C2=O)NC(=O)/C(C)=C\C=C\[C@H](C)[C@H](O)[C@@H](C)[C@@H](O)[C@@H](C)[C@H](OC(C)=O)[C@@H]1C [Rifampin, rifampin]
MIC ([1]; ATCC10145, Corning NBS, MHB +T80): 32 mg/L (≈ 38.9 µM)
MIC ([1]; ATCC10145, Corning NBS, MHB -T80): 16 to 32 mg/L (≈ 19.4 to 38.9 µM)
MIC ([1]; ATCC10145, Corning PS, MHB +T80): 32 to 64 mg/L (≈ 38.9 to 77.8 µM)
MIC ([1]; ATCC10145, Corning PS, MHB -T80): 16 to 32 mg/L (≈ 19.4 to 38.9 µM)
MIC ([1]; ATCC10145, Corning TC, MHB +T80): 32 mg/L (≈ 38.9 µM)
MIC ([1]; ATCC10145, Corning TC, MHB -T80): 32 mg/L (≈ 38.9 µM)
MIC ([2]; ATCC13883, Corning NBS, MHB +T80): 16 mg/L (≈ 19.4 µM)
MIC ([2]; ATCC13883, Corning NBS, MHB -T80): 16 mg/L (≈ 19.4 µM)
MIC ([2]; ATCC13883, Corning PS, MHB +T80): 16 to 64 mg/L (≈ 19.4 to 77.8 µM)
MIC ([2]; ATCC13883, Corning PS, MHB -T80): 8 to 16 mg/L (≈ 9.72 to 19.4 µM)
MIC ([2]; ATCC13883, Corning TC, MHB +T80): 16 mg/L (≈ 19.4 µM)
MIC ([2]; ATCC13883, Corning TC, MHB -T80): 16 mg/L (≈ 19.4 µM)
MIC ([3]; ATCC19606, Corning NBS, MHB +T80): 2 mg/L (≈ 2.43 µM)
MIC ([3]; ATCC19606, Corning NBS, MHB -T80): 2 mg/L (≈ 2.43 µM)
MIC ([3]; ATCC19606, Corning PS, MHB +T80): 2 mg/L (≈ 2.43 µM)
MIC ([3]; ATCC19606, Corning PS, MHB -T80): 2 mg/L (≈ 2.43 µM)
MIC ([3]; ATCC19606, Corning TC, MHB +T80): 2 mg/L (≈ 2.43 µM)
MIC ([3]; ATCC19606, Corning TC, MHB -T80): 2 to 4 mg/L (≈ 2.43 to 4.86 µM)
MIC (literature) [4]: 0.015 ([62]) µg/ml
MIC (literature) [5]: 2 ([74], [75]) µg/ml
MIC ([6]; Corning NBS plate, MHB −T80, no additive): 4 to 8 mg/L
MIC ([6]; Corning NBS plate, MHB −T80, no additive, listed as Rifampicin): 4 to 8 mg/L
MIC ([6]; Corning PS plate, MHB +0.002% T80, no further additive): 8 to 16 mg/L
MIC ([6]; Corning PS plate, MHB +0.002% T80, no further additive, listed as Rifampicin): 8 to 16 mg/L
MIC ([6]; Corning PS plate, MHB −T80, no additive): 4 to 8 mg/L
MIC ([6]; Corning PS plate, MHB −T80, no additive, listed as Rifampicin): 4 to 8 mg/L
MIC ([6]; Corning TC plate, MHB −T80, no additive): 4 to 8 mg/L
MIC ([6]; Corning TC plate, MHB −T80, no additive, listed as Rifampicin): 4 to 8 mg/L
MIC ([6]; Escherichia coli, ATCC25922, 24 h, Corning NBS, MH + 2% LHB, 2% LS): 4 to 8 mg/L
MIC ([6]; Escherichia coli, ATCC25922, 24 h, Corning NBS, MH + 2% LHB, 50% HS): 8 mg/L
MIC ([6]; Escherichia coli, ATCC25922, 24 h, Corning NBS, MH + 2% LHB, no additive): 2 to 4 mg/L
MIC ([6]; Escherichia coli, ATCC25922, 24 h, Corning NBS, MH + T80, 2% LS): 4 to 8 mg/L
MIC ([6]; Escherichia coli, ATCC25922, 24 h, Corning NBS, MH + T80, 50% HS): 8 mg/L
MIC ([6]; Escherichia coli, ATCC25922, 24 h, Corning PS, MH + 2% LHB, 2% LS): 4 to 8 mg/L
MIC ([6]; Escherichia coli, ATCC25922, 24 h, Corning PS, MH + 2% LHB, 50% HS): 4 to 8 mg/L
MIC ([6]; Escherichia coli, ATCC25922, 24 h, Corning PS, MH + 2% LHB, no additive): 4 to 8 mg/L
MIC ([6]; Escherichia coli, ATCC25922, 24 h, Corning PS, MH + T80, 2% LS): 4 to 8 mg/L
MIC ([6]; Escherichia coli, ATCC25922, 24 h, Corning PS, MH + T80, 50% HS): 8 mg/L
MIC ([6]; Escherichia coli, ATCC25922, 24 h, Corning TC, MH + 2% LHB, 2% LS): 8 mg/L
MIC ([6]; Escherichia coli, ATCC25922, 24 h, Corning TC, MH + 2% LHB, 50% HS): 8 to 16 mg/L
MIC ([6]; Escherichia coli, ATCC25922, 24 h, Corning TC, MH + 2% LHB, no additive): 8 mg/L
MIC ([6]; Escherichia coli, ATCC25922, 24 h, Corning TC, MH + T80, 2% LS): 4 to 8 mg/L
MIC ([6]; Escherichia coli, ATCC25922, 24 h, Corning TC, MH + T80, 50% HS): 8 mg/L
MIC ([6]; Escherichia coli, ATCC25922, 24 h, Trek PS, MH + 2% LHB, 2% LS): 2 to 4 mg/L
MIC ([6]; Escherichia coli, ATCC25922, 24 h, Trek PS, MH + 2% LHB, 50% HS): 4 mg/L
MIC ([6]; Escherichia coli, ATCC25922, 24 h, Trek PS, MH + 2% LHB, no additive): 4 to 8 mg/L
MIC ([6]; Escherichia coli, ATCC25922, 24 h, Trek PS, MH + T80, 2% LS): 4 mg/L
MIC ([6]; Escherichia coli, ATCC25922, 24 h, Trek PS, MH + T80, 50% HS): 4 to 8 mg/L
MIC ([6]; Escherichia coli, ATCC25922, Corning NBS plate, MHB +0.002% T80, no further additive): 8 mg/L (≈ 9.72 µM)
MIC ([6]; Escherichia coli, ATCC25922, Corning NBS plate, MHB −T80, no additive): 4 to 8 mg/L (≈ 4.86 to 9.72 µM)
MIC ([6]; Escherichia coli, ATCC25922, Corning NBS, MH, 2% LS): 8 mg/L (≈ 9.72 µM)
MIC ([6]; Escherichia coli, ATCC25922, Corning NBS, MH, 50% HS): 8 mg/L (≈ 9.72 µM)
MIC ([6]; Escherichia coli, ATCC25922, Corning PS plate, MHB +0.002% T80, no further additive): 8 to 16 mg/L (≈ 9.72 to 19.4 µM)
MIC ([6]; Escherichia coli, ATCC25922, Corning PS plate, MHB −T80, no additive): 4 to 8 mg/L (≈ 4.86 to 9.72 µM)
MIC ([6]; Escherichia coli, ATCC25922, Corning PS, MH, 2% LS): 8 mg/L (≈ 9.72 µM)
MIC ([6]; Escherichia coli, ATCC25922, Corning PS, MH, 50% HS): 4 to 8 mg/L (≈ 4.86 to 9.72 µM)
MIC ([6]; Escherichia coli, ATCC25922, Corning TC plate, MHB +0.002% T80, no further additive): 8 mg/L (≈ 9.72 µM)
MIC ([6]; Escherichia coli, ATCC25922, Corning TC plate, MHB −T80, no additive): 4 to 8 mg/L (≈ 4.86 to 9.72 µM)
MIC ([6]; Escherichia coli, ATCC25922, Corning TC, MH, 2% LS): 8 mg/L (≈ 9.72 µM)
MIC ([6]; Escherichia coli, ATCC25922, Corning TC, MH, 50% HS): 8 mg/L (≈ 9.72 µM)
MIC ([6]; Escherichia coli, ATCC25922, Nunc PS plate, MHB +0.002% T80): 4 to 8 mg/L (≈ 4.86 to 9.72 µM)
MIC ([6]; Escherichia coli, ATCC25922, Nunc PS plate, MHB −T80): 4 mg/L (≈ 4.86 µM)
MIC ([6]; Escherichia coli, ATCC25922, Nunc U TC plate, MHB +0.002% T80): 8 mg/L (≈ 9.72 µM)
MIC ([6]; Escherichia coli, ATCC25922, Nunc U TC plate, MHB −T80): 4 to 8 mg/L (≈ 4.86 to 9.72 µM)
MIC ([6]; Escherichia coli, ATCC25922, Nunc flat TC plate, MHB +0.002% T80): 8 mg/L (≈ 9.72 µM)
MIC ([6]; Escherichia coli, ATCC25922, Nunc flat TC plate, MHB −T80): 4 mg/L (≈ 4.86 µM)
MIC ([6]; Escherichia coli, ATCC25922, Trek PS plate, MHB +0.002% T80, no further additive): 8 to 16 mg/L (≈ 9.72 to 19.4 µM)
MIC ([6]; Escherichia coli, ATCC25922, Trek PS plate, MHB −T80, no additive): 4 mg/L (≈ 4.86 µM)
MIC ([6]; Escherichia coli, ATCC25922, Trek PS, MH, 2% LS): 4 to 8 mg/L (≈ 4.86 to 9.72 µM)
MIC ([6]; Escherichia coli, ATCC25922, Trek PS, MH, 50% HS): 8 mg/L (≈ 9.72 µM)
MIC ([6]; Trek PS plate, MHB +0.002% T80, no further additive): 8 to 16 mg/L
